Results: patent US20120238562A1, “TREATMENT OF CANCER BY TARGETING MOLECULES THAT INFLUENCE MST1/STK4 SIGNALING” (CEDARS-SINAI MEDICAL CENTER, priority 2011, published 2012)
“Also recorded” adds a separate entry of the source.

How the values were obtained:
Assay type in all cases: cell-based, human
C4-2 cells = experiment: Cell proliferation by MTS assay, C4-2 cells; conditions: for C4-2 cell growth / proliferation vs control (MTS, A490 nm): 48 h post treatment, vs DMSO, Ku0063794 1 μM, rapamycin 1 μM (p<0.1), BEZ-235 0.5 μM (p<0.002)
Protocol: A, B) LNCaP (A) or C4-2 (B) cells were treated with control (DMSO), LY294002 (20 μM), Ku0063794 (1 μM), rapamycin (1 μM), LY294002+Ku0063794, or LY294002+Rapamycin. C) C4-2 cells were treated with DMSO or the dual PI3K and mTOR inhibitor, BEZ-235 (0.5 μM). Control or drug treatments were performed in T-medium supplemented with 5% FBS and 1% Pen/Strep. Cell proliferation was determined by MTS assay (A490 nm) at 48 h post treatment. D) Levels of endogenous total Mst1 by western blot in cytoplasmic (C) and nuclear (N) fractions from C4-2 cells that were transfected with scramble or Mst1 specific SiRNa. B-actin was used as a loading control. E) Effects of DMSO or CCI-779 on C4-2 cell proliferation with scramble or MSt1 knockdown conditions. Cell proliferation was determined by MTS (A490 nm) at 72 h post transfection. Data are representative of multiple experiments.
Cell proliferation was measured using CellTiter 96 AQueous with MTS reagent (Promega, Madison, Wis.). Briefly, cells in RPMI-medium plus 10% fetal bovine serum were added to 96-well plates at 4,000 cells per well in quadruplicate. After 24 h, LY290042, Ku0063794, Rapamycin, CCI-779 or BEZ-235 alone or combined were added, and cells were cultured for the indicated time. DMSO was used as a control. At 24 h post siRNA transfection, cells were treated with DMSO control or CCI-779 and incubated up to 72 h. MTS and phenazine methosulfate solution (20 μL/well) was added and the absorbance at 490 nm was recorded using a microplate reader (BMG Labtech; Cary, N.C.). For the clonogenic assay, 500 cells per well were seeded and cultured in 6-well plates for a week in the presence of Dox (0.5 μg/mL) in serum-fed conditions. The medium was changed every 3 days. Colonies were fixed with formaldehyde (4% v/v) and stained with crystal violet (0.5%). Representative views from triplicate experiments were photographed and quantified. […] After 14 days, colonies were photographed and quantified. […]

[1] = test system: Mst1-T120 phosphorylation; experiment: Western blot of Mst1-T120 phosphorylation in cytoplasmic and nuclear fractions of C4-2 cells; conditions: serum-deprived, 3 h post treatment, vs DMSO control, LY294002 20 μM, Ku0063794 1 μM, CCI-779 1 μM
Protocol: (§1) A) Schematic representation of the GST-Mst1 peptide with wild type (wt) T120 or T120A mutations. B) In vitro kinase assay with bacterially expressed and purified GST-only, GST-Mst1-T120 wt, or GST-Mst1-T120A mutant peptide and the recombinant pre-activated Akt kinase. Western blots were probed with pMst1-T120 antibody. Ponceau S stained purified GST, GST-Mst1-T120, or GST-Mst1-T120A mutant peptide. C) LNCaP cells were treated with DMSO (vehicle) control, a specific PI3K inhibitor, LY294002 (20 μM), or mTOR inhibitor, Ku0063794 (1 μM) in serum-starved conditions. […]
(§2) A nuclear extraction kit according to the manufacturer's protocol (Affymetrix, Santa Clara, Calif.) was used to isolate cytoplasmic and nuclear fractions. […] Protein concentrations were determined by the Lowry method (Bio-Rad, Hercules, Calif.). […] Signals were detected using SuperSignal West Pico Chemiluminescence Substrate (Thermo Scientific, Roxford, Ill.).
(§3) The inventors generated GST-Mst1 peptide with T120-wt or T120A mutations (FIG. 2A). […] The inventors then assessed the effects of PI3K-Akt inhibition on Mst1-T120 phosphorylation in its respective location in the cell. […] The levels of phospho-Mst1-T120 were assessed by western blot in cytoplasmic and nuclear fractions. […]

Mst1 = experiment: Western blot of Mst1 nuclear accumulation in C4-2 cells; conditions: Ku0063794 1 μM or CCI-779 1 μM, 3 h post treatment
Protocol: A) Schematic representation of the GST-Mst1 peptide with wild type (wt) T120 or T120A mutations. B) In vitro kinase assay with bacterially expressed and purified GST-only, GST-Mst1-T120 wt, or GST-Mst1-T120A mutant peptide and the recombinant pre-activated Akt kinase. Western blots were probed with pMst1-T120 antibody. Ponceau S stained purified GST, GST-Mst1-T120, or GST-Mst1-T120A mutant peptide. C) LNCaP cells were treated with DMSO (vehicle) control, a specific PI3K inhibitor, LY294002 (20 μM), or mTOR inhibitor, Ku0063794 (1 μM) in serum-starved conditions. D) C4-2 cells were treated with Temsirolimus (CCI-779), an mTORC1 inhibitor (1 μM) in addition to DMSO, LY294002 and Ku0063794 under the same experimental conditions as in “C”. E) C4-2 cells treated with DMSO or LY294002 and CCI-779. Control/DMSO or drug treatment in “C,” “D,” or “E” was performed under serum-deprived conditions. Western blots were probed with antibodies to corresponding proteins at 3 h post treatment. Lam-A/C:Lamin-A/C. […]
as §2, with “Ill.). […]” for “Ill.).”

Akt = Akt activation in C4-2 cells under mTOR inhibition; conditions: castration-resistant prostate cancer cells (C4-2), same conditions as Mst1-T120 hyper-phosphorylation
Protocol: A) Schematic representation of the GST-Mst1 peptide with wild type (wt) T120 or T120A mutations. B) In vitro kinase assay with bacterially expressed and purified GST-only, GST-Mst1-T120 wt, or GST-Mst1-T120A mutant peptide and the recombinant pre-activated Akt kinase. Western blots were probed with pMst1-T120 antibody. Ponceau S stained purified GST, GST-Mst1-T120, or GST-Mst1-T120A mutant peptide. C) LNCaP cells were treated with DMSO (vehicle) control, a specific PI3K inhibitor, LY294002 (20 μM), or mTOR inhibitor, Ku0063794 (1 μM) in serum-starved conditions. D) C4-2 cells were treated with Temsirolimus (CCI-779), an mTORC1 inhibitor (1 μM) in addition to DMSO, LY294002 and Ku0063794 under the same experimental conditions as in “C”. E) C4-2 cells treated with DMSO or LY294002 and CCI-779. Control/DMSO or drug treatment in “C,” “D,” or “E” was performed under serum-deprived conditions. Western blots were probed with antibodies to corresponding proteins at 3 h post treatment. Lam-A/C:Lamin-A/C. Data are representative of multiple experiments.
Consistent with this finding, PI3K and mTORC1 inhibition combined synergistically to prevent the proliferation of C4-2 cells compared to a single agent (FIG. 3B). […]

[2] = test system: Mst1-T183 phosphorylation; experiment: Mst1-T183 phosphorylation in treated prostate cancer cells; conditions: prostate cancer cells treated with inhibitor
Protocol: However, the levels of […] phosphorylation were unchanged when cells were treated with a potent mTOR inhibitor, Ku0063794, (FIG. 3). […] Based on these observations, the inventors therefore conclude that Mst1-phosphorylation at T120 or at […] are unrelated events or is modulated by different mechanisms, at least in prostate cancer cells.

[3] = test system: Mst1-T120 phosphorylation; experiment: Western blot of Mst1-T120 phosphorylation in cytoplasmic and nuclear fractions of LNCaP cells; conditions: serum-starved, 3 h post treatment, vs DMSO control, LY294002 20 μM, Ku0063794 1 μM
Protocol: as §1, §2, §3

Structure (SMILES) | C4-2 cell growth / proliferation vs control (MTS, A490 nm) (C4-2 cells) | Mst1-T120 phosphorylation [1] | Mst1 nuclear accumulation (Mst1) | Akt activation (Akt) | C4-2 cell proliferation under Mst1 knockdown vs scramble siRNA (MTS, A490 nm) (C4-2 cells; Mst1 siRNA vs scramble siRNA, CCI-779 vs DMSO, 72 h post transfection) | Mst1-T183 phosphorylation [2] | Mst1-T120 phosphorylation in cell nuclei [3]
Cn1c(=O)n(-c2ccc(C(C)(C)C#N)cc2)c2c3cc(-c4cnc5ccccc5c4)ccc3ncc21 [BEZ-235] | significantly inhibited | – | – | – | – | – | –
CO[C@H]1C[C@@H]2CC[C@@H](C)[C@@](O)(O2)C(=O)C(=O)N2CCCC[C@H]2C(=O)O[C@H]([C@H](C)C[C@@H]2CC[C@@H](OC(=O)C(C)(CO)CO)[C@H](OC)C2)CC(=O)[C@H](C)/C=C(\C)[C@@H](O)[C@@H](OC)C(=O)[C@H](C)C[C@H](C)/C=C/C=C/C=C/1C [CCI-779, temsirolimus] | – | hyper-phosphorylation; also recorded: hyperphosphorylation | increase | did not observe Akt activation | sensitized | – | –
COc1ccc(-c2ccc3c(N4CCOCC4)nc(N4C[C@@H](C)O[C@@H](C)C4)nc3n2)cc1CO [Ku0063794] | failed to significantly inhibit | hyper-phosphorylation; also recorded: hyperphosphorylation | increase | did not observe Akt activation | – | unchanged | unable to prevent
